pIC50: −log10 of the molar value.
Target: CREBBP (Homo sapiens (Human), UniProt Q92793)
Assay: In vitro enzyme inhibition assay - CREBBP inhibition (AlphaScreen, biotinylated H4-tetraacetyl peptide)
Type: binding
Settings: Table 28; AlphaScreen, H4-tetraacetyl peptide
Protocol: Determination of the IC50 for the CREBBP inhibitors disclosed herein was performed as follows: CREBBP was cloned and expressed in E. Coli as His-tag protein and purified by Nickel affinity and gel-filtration chromatography. […] CREBBP binding and inhibition was assessed by monitoring the interaction of biotinylated H4-tetraacetyl peptide (AnaSpec, H4K5/8/12/16(Ac), biotin-labeled) with the target using the AlphaScreen technology (Perkin Elmer). In a 384-well ProxiPlate CREBBP (50 nM final) was combined with peptide (20 nM final) in 50 mM HEPES (pH 7.3), 10 mM NaCl, 0.25 mM TCEP, 0.1% (w/v) BSA, and 0.005% (w/v) Brij-35 either in the presence of DMSO (final 0.4% DMSO) or compound dilution series in DMSO. After 20-minute incubation at room temperature, Alpha streptavidin donor beads and Nickel Chelate acceptor beads were added to a final concentration of 5 μg/mL. After two hours of equilibration, plates were read on an Envision instrument and the IC50 was calculated using a four parameter non-linear curve fit.
The ability of the compounds disclosed herein to inhibit CBP activity was quantified and the respective IC50 value was determined.

CREBBP, sequence (Q92793 1081-1197): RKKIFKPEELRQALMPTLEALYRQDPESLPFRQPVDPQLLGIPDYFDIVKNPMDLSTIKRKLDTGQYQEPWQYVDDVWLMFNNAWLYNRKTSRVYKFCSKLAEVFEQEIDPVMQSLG

pIC50 | Structure (SMILES)
> 6.30 | CCOc1ccc(C(C)Nc2cc(-c3ccc(=O)n(C)c3)nc(Oc3c(C)cccc3F)n2)cc1 (centres unmarked) [Example 278, 5-(6-((1-(4-ethoxyphenyl)ethyl)amino)-2-(2-fluoro-6-methylphenoxy)pyrimidin-4-yl)-1-methylpyridin-2(1H)-one]
> 6.30 | Cc1cccc(C)c1Oc1nc(NS(=O)(=O)CC(C)C)cc(-c2cc(C)c(=O)n(C)c2)n1 [Example 83, N-(6-(1,5-dimethyl-6-oxo-1,6-dihydropyridin-3-yl)-2-(2,6-dimethylphenoxy)pyrimidin-4-yl)-2-methylpropane-1-sulfonamide]
> 6.30 | Cc1cccc(F)c1Oc1nc(N[C@H]2CCc3ccccc32)cc(-c2ccc(=O)n(C)c2)n1 [Example 287, (S)-5-(6-((2,3-dihydro-1H-inden-1-yl)amino)-2-(2-fluoro-6-methylphenoxy)pyrimidin-4-yl)-1-methylpyridin-2(1H)-one]
> 6.30 | Cc1cc(-c2cc(N)nc(Oc3ccc(F)cc3F)n2)cn(C)c1=O [Example 270, 5-(6-amino-2-(2,4-difluorophenoxy)pyrimidin-4-yl)-1,3-dimethy-lpyridin-2(1H)-one]
> 6.30 | CCCS(=O)(=O)Nc1cc(-c2cc(C)c(=O)n(C)c2)nc(Oc2c(C)cccc2Cl)n1 [Example 101, Propane-1-sulfonic acid [2-(2-chloro-6-methyl-phenoxy)-6-(1,5-dimethyl-6-oxo-1,6-dihydro-pyridin-3-yl)-pyrimidin-4-yl]-amide]
> 6.30 | Cn1cc(-c2cc3nc(n2)Oc2cccc(c2)OCCCCCS(=O)(=O)N3)ccc1=O [Example 357, 5-(10,10-dioxido-2,4-dioxa-10-thia-11-aza-1(2,4)-pyrimidina-3(1,3)-benzenacycloundecaphane-1^6-yl)-1-methylpyridin-2(1H)-one]
> 6.30 | Cc1cccc(C(C)Nc2cc(-c3ccc(=O)n(C)c3)nc(Oc3c(C)cccc3F)n2)n1 (centres unmarked) [Example 288, 5-(2-(2-fluoro-6-methylphenoxy)-6-((1-(6-methylpyridin-2-yl)ethyl)amino)pyrimidin-4-yl)-1-methylpyridin-2(1H)-one]
5.30 to 6.30 | CCCS(=O)(=O)Nc1cc(-c2cc(C)c(=O)n(C3COC3)c2)nc(Oc2c(C)cccc2C)n1 [Example 55, Propane-1-sulfonic acid [2-(2,6-dimethyl-phenoxy)-6-(5-methyl-1-oxetan-3-yl-6-oxo-1,6-dihydro-pyridin-3-yl)-pyrimidin-4-yl]-amide]
> 6.30 | Cc1ccc(Cl)cc1Oc1nc(NS(=O)(=O)C(C)C)cc(-c2cc(C)c(=O)n(C)c2)n1 [Example 6, Propane-2-sulfonic acid [2-(5-chloro-2-methyl-phenoxy)-6-(1,5-dimethyl-6-oxo-1,6-dihydro-pyridin-3-yl)-pyrimidin-4-yl]-amide]
> 6.30 | Cn1cc(-c2cc(NS(=O)(=O)CCC(F)(F)F)nc(Oc3c(F)cccc3Cl)n2)ccc1=O [Example 231, 3,3,3-Trifluoro-propane-1-sulfonic acid [2-(2-chloro-6-fluoro-phenoxy)-6-(1-methyl-6-oxo-1,6-dihydro-pyridin-3-yl)-pyrimidin-4-yl]-amide]
> 6.30 | Cc1cc(F)cc(F)c1Oc1nc(NS(=O)(=O)C(C)C)cc(-c2ccc(=O)n(C)c2)n1 [Example 346, N-(2-(2,4-difluoro-6-methylphenoxy)-6-(1-methyl-6-oxo-1,6-dihydropyridin-3-yl)pyrimidin-4-yl)propane-2-sulfonamide]
> 6.30 | Cc1cc(-c2cc(S(=O)(=O)C(C)C)nc(Oc3ccc(F)cc3F)n2)cn(C)c1=O [Example 134, 5-[2-(2,4-Difluoro-phenoxy)-6-(propane-2-sulfonyl)-pyrimidin-4-yl]-1,3-dimethyl-1H-pyridin-2-one]

The remaining lines, values behind:

Structure (SMILES) | pIC50
CCC(CC)S(=O)(=O)Nc1cc(-c2ccc(=O)n(C)c2)nc(Oc2c(C)cccc2Cl)n1 [Example 259, Pentane-3-sulfonic acid [2-(2-chloro-6-methyl-phenoxy)-6-(1-methyl-6-oxo-1,6-dihydro-pyridin-3-yl)-pyrimidin-4-yl]-amide] | > 6.30
CCCS(=O)(=O)Nc1cc(-c2cc(C)c(=O)n(C)c2)nc(Oc2cnccc2C)n1 [Example 112, Propane-1-sulfonic acid [6-(1,5-dimethyl-6-oxo-1,6-dihydro-pyridin-3-yl)-2-(4-methyl-pyridin-3-yloxy)-pyrimidin-4-yl]-amide] | > 6.30
CCCCS(=O)(=O)Nc1cc(-c2ccc(=O)n(C)c2)nc(Oc2c(C)cc(F)cc2F)n1 [Example 343, N-(2-(2,4-difluoro-6-methylphenoxy)-6-(1-methyl-6-oxo-1,6-dihydropyridin-3-yl)pyrimidin-4-yl)butane-1-sulfonamide] | > 6.30
COc1cccc(F)c1Oc1nc(NS(=O)(=O)C(C)C)cc(-c2ccc(=O)n(C)c2)n1 [Example 234, Propane-2-sulfonic acid [2-(2-fluoro-6-methoxy-phenoxy)-6-(1-methyl-6-oxo-1,6-dihydro-pyridin-3-yl)-pyrimidin-4-yl]-amide] | > 6.30
CCC(F)(F)S(=O)(=O)Nc1cc(-c2cc(C)c(=O)n(C)c2)nc(Oc2c(C)cccc2F)n1 [Example 167, 1,1-Difluoro-propane-1-sulfonic acid [6-(1,5-dimethyl-6-oxo-1,6-dihydro-pyridin-3-yl)-2-(2-fluoro-6-methyl-phenoxy)-pyrimidin-4-yl]-amide] | > 6.30
Cc1cc(-c2cc(NS(=O)(=O)C(C)C)nc(Oc3ccc(F)cc3F)n2)cn(CC2CC2)c1=O [Example 49, Propane-2-sulfonic acid [6-(1-cyclopropylmethyl-5-methyl-6-oxo-1,6-dihydro-pyridin-3-yl)-2-(2,4-difluoro-phenoxy)-pyrimidin-4-yl]-amide] | > 6.30
CCC(CC)S(=O)(=O)Nc1cc(-c2ccc(=O)n(C)c2)nc(Oc2c(C)cccc2F)n1 [Example 253, Pentane-3-sulfonic acid [2-(2-fluoro-6-methyl-pphenoxy)-6-(1-methyl-6-oxo-1,6-dihydro-pyridin-3-yl)-pyrimidin-4-yl]-amide] | > 6.30
CC[C@H](C)S(=O)(=O)Nc1cc(-c2ccc(=O)n(C)c2)nc(Oc2c(F)cccc2F)n1 [Example 229, (S)-N-(2-(2,6-difluorophenoxy)-6-(1-methyl-6-oxo-1,6-dihydropyridin-3-yl)pyrimidin-4-yl)butane-2-sulfonamide] | > 6.30
CCCCS(=O)(=O)Nc1cc(-c2ccc(=O)n(C)c2)nc(Oc2c(C)cccc2C#N)n1 [Example 108, Butane-1-sulfonic acid [2-(2-cyano-6-methyl-phenoxy)-6-(1-methyl-6-oxo-1,6-dihydro-pyridin-3-yl)-pyrimidin-4-yl]-amide] | > 6.30
CCS(=O)(=O)Nc1cc(-c2cc(C)c(=O)n(C)c2)nc(-c2ccccc2OC)n1 [Example 193, Ethanesulfonic acid [6-(1,5-dimethyl-6-oxo-1,6-dihydro-pyridin-3-yl)-2-(2-methoxy-phenyl)-pyrimidin-4-yl]-amide] | > 6.30
Cc1cccc(F)c1Oc1nc(N[C@H]2CCCc3ccccc32)cc(-c2ccc(=O)n(C)c2)n1 [Example 311, (S)-5-[2-(2-Fluoro-6-methyl-phenoxy)-6-(1,2,3,4-tetrahydro-naphthalen-1-ylamino)-pyrimidin-4-yl]-1-methyl-1H-pyridin-2-one] | > 6.30
